Legend:
Amblyomma americanum = assay: In vitro contact test with hard ticks (Amblyomma americanum nymphs); conditions: dose 1 μg/cm^2, 48 h, read-out: acaricidal activity
Protocol: (§1) In Vitro Contact Tests with Adult Hard Ticks
(§2) In vitro contact tests with ticks were conducted with adult males and females of Rhipicephalus sanguineus, Ixodes ricinus, or Dermacentor variabilis, or nymphs of Amblyomma americanum.
(§3) For the coating of the test vials, the test substance was dissolved and diluted in acetone p.a. to the desired concentration. The solution was then homogeneously applied to the inner wall and base of a glass vial by turning and rocking on an orbital shaker until complete evaporation of the solvent. For example, with a 900 ppm solution of test substance, an area-based dose of 5 μg/cm^2 was achieved.
(§4) After the solvent was completely evaporated, 5-10 adult ticks were put in each coated test vial, which was then sealed with a perforated plastic lid and incubated in a horizontal position in the dark at room temperature and ambient humidity (Rhipicephalus sanguineus) or in a climate-controlled cabinet (Ixodes ricinus, Dermacentor variabilis, Amblyomma americanum [21° C., 85% rel. hum.]). Acaricidal activity against the respective tick species was determined after 48 h. For this, ticks were collected to the base of the test vial by gentle knocking, and test vials were then incubated on a hotplate at 45-50° C. for no longer than 5 min. Ticks which remained motionless on the base of the test vial or moved uncoordinated without deliberately climbing up to avoid the heat were considered dead or moribund, respectively.
(§5) A substance was judged to have good acaricidal activity against the respective tick species when at least 80% of ticks were found dead or moribund at a dose of the substance of g/cm^2. An acaricidal activity of 100% means all ticks were dead or moribund. An acaricidal activity of 0% means none of the ticks was found dead or moribund.

[1] = system: Rhipicephalus (Boophilus) microplus; assay: In vitro injection test with Rhipicephalus (Boophilus) microplus (BOOPMI Inj); conditions: 168 h, laid fertile eggs after 7 days, read-out: acaricidal activity; for pest or weed control at 0.0008 mg: dose 0.8 μg/animal injected; for pest or weed control at 0.00016 mg: dose 0.16 μg/animal injected; for pest or weed control at 32 ng: dose 0.032 μg/animal injected
Protocol: In Vitro Injection Test with Rhipicephalus (Boophilus) Microplus (BOOPMI Inj)
To produce an appropriate mixture for injection, the test substance was dissolved and diluted in dimethyl sulphoxide to the desired concentration. 1 μl of the test mixture was injected into the abdomen of each of 5 engorged adult female cattle ticks (Rhipicephalus (Boophilus) microplus). The ticks were transferred into petri dishes and maintained in a climate-controlled room [28° C., 85% rel. hum.].
Acaricidal activity against cattle ticks was assessed after 7 days by assessment of laid fertile eggs. […] An acaricidal activity of 100% means that none of the ticks laid eggs or laid eggs were infertile; 0% means that the ticks laid eggs, and all the eggs were fertile.

Ctenocephalides felis [2] = assay: In vitro contact test with fleas; conditions: read-out: insecticidal activity; for pest or weed control at 0.2 µg/cm2, 0.2 µg/cm2: dose 0.2 μg/cm^2, dead or moribund fleas after 48 h; for pest or weed control at 1 µg/cm2, 1 µg/cm2: dose 1 μg/cm^2, dead or moribund fleas after 48 h
Protocol: In Vitro Contact Tests with Fleas
In vitro contact tests with fleas were conducted with adult male and female cat fleas (Ctenocephalides felis).
To coat the test tubes, the test substance was dissolved and diluted in acetone p.a. to the desired concentration. The solution was then homogeneously applied to the inner wall and base of a glass tube by turning and rocking on an orbital shaker until complete evaporation of the solvent. For example, with a 900 ppm solution of test substance, an area-based dose of 5 μg/cm^2 was achieved.
Upon complete evaporation of the solvent, 5-10 adult cat fleas (Ctenocephalides felis) were added to each coated tube, which was then sealed with a perforated plastic lid and incubated in a horizontal position at room temperature and ambient humidity. After 48 h, insecticidal activity against fleas was determined. For this, fleas were collected to the base of the tube by knocking the tube, and the tube was allowed to stand upright. Fleas which remained motionless at the base or moved in an uncoordinated manner were considered dead or moribund, respectively.
A substance was judged to have good insecticidal activity against Ctenocephalides felis when at least 80% of the fleas were found dead or moribund at a dose of the substance of μg/cm^2. 100% insecticidal activity means that all the fleas were found dead or moribund. 0% insecticidal activity means that no fleas were found dead or moribund.

Rhipicephalus sanguineus = assay: In vitro contact test with adult hard ticks (Rhipicephalus sanguineus); conditions: read-out: acaricidal activity; for pest or weed control at 0.2 µg/cm2, 0.2 µg/cm2: dose 0.2 μg/cm^2, 48 h; for pest or weed control at 1 µg/cm2, 1 µg/cm2: dose 1 μg/cm^2, 48 h
Protocol: as §1, §2, §3, §4, §5

Ctenocephalides felis [3] = assay: Ctenocephalides felis in-vitro feeding test with fleas (CTECFE oral); conditions: 48 hours, read-out: insecticidal feeding activity; for pest or weed control at 4 ppm: dose 4 ppm in citrated cattle blood; for pest or weed control at 0.8 ppm: dose 0.8 ppm in citrated cattle blood; for pest or weed control at 0.16 ppm: dose 0.16 ppm in citrated cattle blood
Protocol: Ctenocephalides felis In-Vitro Feeding Test with Fleas (CTECFE Oral)
To prepare a test blood mixture for feeding fleas, the test substance was dissolved in dimethyl sulphoxide and diluted with citrated cattle blood to the desired concentration.
To assemble the test set-up, about 20 unfed adult male and female cat fleas
(Ctenocephalides felis) were placed in a chamber which was closed at the top and bottom with gauze. A metal cylinder was sealed at one end with parafilm membrane, placed with the sealed base onto the chamber, and filled with the test blood mixture, which could be imbibed by the fleas through the parafilm membrane. The assembled test set-up was maintained at about 37° C. After 48 hours, the insecticidal feeding activity against fleas was determined. 100% means that all of the fleas were killed; 0% means that none of the fleas was killed.

Dermacentor variabilis = assay: In vitro contact test with adult hard ticks (Dermacentor variabilis); conditions: read-out: acaricidal activity; for pest or weed control at 1 µg/cm2, 1 µg/cm2: dose 1 μg/cm^2, 48 h
Protocol: as §1, §2, §3, §4, §5

Structure (SMILES)	pest or weed control at 0.0008 mg [1]	pest or weed control at 0.2 µg/cm2, 0.2 µg/cm2 (Ctenocephalides felis [2])	pest or weed control at 1 µg/cm2, 1 µg/cm2 (Ctenocephalides felis [2])	pest or weed control at 4 ppm (Ctenocephalides felis [3])	pest or weed control at 0.00016 mg [1]	pest or weed control at 0.8 ppm (Ctenocephalides felis [3])	further results
O=C(Nc1cccc(C(=O)Nc2c(Br)cc(C(F)(C(F)(F)F)C(F)(F)F)cc2OC(F)(F)F)c1)c1ccc(C(F)(F)F)cc1 [Compound 1]	100%						pest or weed control at 1 µg/cm2, 1 µg/cm2 (Amblyomma americanum): 90%
O=C(Nc1cccc(C(=O)Nc2c(Br)cc(C(F)(C(F)(F)F)C(F)(F)F)cc2OC(F)(F)F)c1)c1ccc(Cl)cc1 [Compound 2]	100%						pest or weed control at 1 µg/cm2, 1 µg/cm2 (Amblyomma americanum): 90%
N#Cc1ccc(C(=O)Nc2cccc(C(=O)Nc3c(Br)cc(C(F)(C(F)(F)F)C(F)(F)F)cc3C(F)(F)F)c2)cc1 [Compound 3]	100%	95%	95%	95%			pest or weed control at 1 µg/cm2, 1 µg/cm2 (Amblyomma americanum): 90%; pest or weed control at 0.2 µg/cm2, 0.2 µg/cm2 (Rhipicephalus sanguineus): 90%; pest or weed control at 1 µg/cm2, 1 µg/cm2 (Rhipicephalus sanguineus): 90%
CN(C(=O)c1ccc(C#N)cc1)c1cccc(C(=O)Nc2c(Br)cc(C(F)(C(F)(F)F)C(F)(F)F)cc2C(F)(F)F)c1 [Compound 4]	100%	95%	95%				pest or weed control at 1 µg/cm2, 1 µg/cm2 (Amblyomma americanum): 90%
CN(C(=O)c1ccc([N+](=O)[O-])cc1)c1cccc(C(=O)Nc2c(Br)cc(C(F)(C(F)(F)F)C(F)(F)F)cc2C(F)(F)F)c1 [Compound 5]	100%	95%	95%	95%	100%		pest or weed control at 1 µg/cm2, 1 µg/cm2 (Dermacentor variabilis): 90%
CN(C(=O)c1ccc(C#N)nc1)c1cccc(C(=O)Nc2c(Br)cc(C(F)(C(F)(F)F)C(F)(F)F)cc2C(F)(F)F)c1 [Compound 6]	100%	95%	95%	95%		95%	
CN(C(=O)c1ccc(S(C)(=O)=O)cc1)c1cccc(C(=O)Nc2c(Br)cc(C(F)(C(F)(F)F)C(F)(F)F)cc2C(F)(F)F)c1 [Compound 7]	100%		95%	95%			
CN(C(=O)c1ccc(C#N)cc1)c1cc(C(=O)Nc2c(Br)cc(C(F)(C(F)(F)F)C(F)(F)F)cc2C(F)(F)F)ccc1F [Compound 8]		95%	95%	95%		95%	
CN(C(=O)c1ccc(C#N)cc1)c1cccc(C(=O)Nc2c(Br)cc(C(F)(C(F)(F)F)C(F)(F)F)cc2OC(F)(F)F)c1 [Compound 10]	100%	95%	95%	95%	100%		pest or weed control at 1 µg/cm2, 1 µg/cm2 (Rhipicephalus sanguineus): 90%
CN(C(=O)c1ccc(C#N)cc1F)c1cccc(C(=O)Nc2c(Br)cc(C(F)(C(F)(F)F)C(F)(F)F)cc2C(F)(F)F)c1 [Compound 14]	100%	95%	95%	95%	100%	95%	pest or weed control at 0.2 µg/cm2, 0.2 µg/cm2 (Rhipicephalus sanguineus): 90%; pest or weed control at 1 µg/cm2, 1 µg/cm2 (Rhipicephalus sanguineus): 90%; pest or weed control at 0.16 ppm (Ctenocephalides felis [3]): 95%
CN(C(=O)c1ccc(C#N)cc1)c1cccc(C(=O)Nc2c(Br)cc(C(F)(C(F)(F)F)C(F)(F)F)cc2C(F)(F)F)c1F [Compound 17]	100%	95%	95%	95%	100%	95%	pest or weed control at 0.04 µg/cm2, 0.04 µg/cm2 (Ctenocephalides felis [2]; dose 0.04 μg/cm^2, dead or moribund fleas after 48 h): 95%; pest or weed control at 0.2 µg/cm2, 0.2 µg/cm2 (Dermacentor variabilis; dose 0.2 μg/cm^2, 48 h): 90%; pest or weed control at 1 µg/cm2, 1 µg/cm2 (Dermacentor variabilis): 90%; pest or weed control at 0.04 µg/cm2, 0.04 µg/cm2 (Rhipicephalus sanguineus; dose 0.04 μg/cm^2, 48 h): 90%; pest or weed control at 0.2 µg/cm2, 0.2 µg/cm2 (Rhipicephalus sanguineus): 90%; pest or weed control at 1 µg/cm2, 1 µg/cm2 (Rhipicephalus sanguineus): 90%; pest or weed control at 32 ng [1]: 100%; pest or weed control at 0.0064 ppm (Ctenocephalides felis [3]; dose 0.0064 ppm in citrated cattle blood): 95%; pest or weed control at 0.032 ppm (Ctenocephalides felis [3]; dose 0.032 ppm in citrated cattle blood): 95%; pest or weed control at 0.16 ppm (Ctenocephalides felis [3]): 95%
CN(C(=O)c1ccc(C#N)cc1Cl)c1cccc(C(=O)Nc2c(Br)cc(C(F)(C(F)(F)F)C(F)(F)F)cc2C(F)(F)F)c1 [Compound 18]				95%		95%	
CN(C(=O)c1ccc(C#N)cc1)c1cccc(C(=O)Nc2c(I)cc(C(F)(C(F)(F)F)C(F)(F)F)cc2C(F)(F)F)c1 [Compound 20]	100%	95%	95%	95%	100%	95%	pest or weed control at 32 ng [1]: 100%
O=C(Nc1c(I)cc(C(F)(C(F)(F)F)C(F)(F)F)cc1C(F)(F)F)c1cccc(NC(=O)c2ccc(Cl)cc2Cl)c1 [Compound 32]	100%			95%			
CS(=O)(=O)c1ccc(C(=O)Nc2cccc(C(=O)Nc3c(I)cc(C(F)(C(F)(F)F)C(F)(F)F)cc3C(F)(F)F)c2)c(Cl)c1 [Compound 40]	100%			95%		95%	
O=C(Nc1c(I)cc(C(F)(C(F)(F)F)C(F)(F)F)cc1C(F)(F)F)c1cccc(NC(=O)c2ccc(Cl)cc2Br)c1 [Compound 42]	100%			95%	100%	95%	

— patent publication US11696913B2, “Prolonged ectoparasite-controlling agent for animal” (MITSUI CHEMICALS AGRO, INC., priority 2017, dated 2023)
